According to patent publication US7235536B2, “Cellulose sulfate and other sulfated polysaccharides to prevent and treat papilloma virus infection and other infections” (Rush Presbyterian-St. Luke's Medical Center, priority 2000, dated 2007):

Key:
Type in all cases: cell-based
[1] = tested on: Prevotella disiens; experiment: Broth method MIC; conditions: for CS MIC: Broth (study 2)
[2] = tested on: Staphylococcus aureus; experiment: Microbial challenge of CS gel
Method: (§1) 6% CS was prepared in water as a translucent gel. Twenty grams of the gel was placed in a plastic screw-cap centrifuge tube. The microbial inoculants were prepared, gently vortexed and 0.1 ml inoculant was aseptically pipetted into the 20.0 gram gel. This procedure was repeated for each microbial organism. The samples were incubated at room temperature (20-25° C.) for 14 days or 28 days. The microbes tested and their theoretical yields can be found in Table F. After 14 or 28 days incubation, dilutions (10^−1, 10^−2, 10^−3) of the gels were made in saline and 1 ml plated onto Sabouraud dextrose (Aspergillus and Candida) or onto tryptic soy (other microbes). The number of organisms that grew after 3-7 days at room temperature were counted.
(§2) In another study, CS was dissolved in water at the concentrations indicated below. No other ingredients, including preservatives, were added. The gels were challenged with microbes as described above except that the gels were examined for the presence of microbes after 1, 2, 3, 4 and 7 days. The amount of microbes origially inoculated in the gels is also shown below.

[3] = tested on: Pseudomonas aeruginosa; experiment: Microbial challenge of CS gel
Method: as §1, §2

[4] = tested on: Candida albicans; experiment: Microbial challenge of CS gel
Method: as §1, §2

[5] = tested on: Escherichia coli; experiment: Microbial challenge of CS gel
Method: as §1, §2

[6] = tested on: Prevotella intermedia; experiment: Broth method MIC; conditions: for CS MIC: Broth (study 2)
[7] = tested on: Fusobacterium gonidiaformans; experiment: Agar method MIC; conditions: for CS MIC: Agar
[8] = tested on: Fusobacterium nucleatum; experiment: Broth method MIC; conditions: for CS MIC: Broth (study 2)

Substance: sodium cellulose sulfate
- growth inhibition ([1]; all strains): inhibited
- CS MIC ([1]; rma# 11579): 10000 µg/mL
- CS MIC ([1]; rma# 11698): 10000 µg/mL
- inactivation of Staphylococcus ([2]; 0.06% CS gel, slow growth thereafter): initially inactivated most Staphylococcus
- inactivation of Staphyloccus ([2]; 6% CS gel): completely inactivated
- Day 14 CFU/g ([2]; 6% CS gel, ATCC 6538, room temperature, Day 14): 0 CFU/g
- Day 28 CFU/g ([2]; 6% CS gel, ATCC 6538, room temperature, Day 28): 0 CFU/g
- Staphylococcus aureus CFU ([2]; CS 0.06% in water, 24 hours): 0.625 CFU × 10^5/ml
- Staphylococcus aureus CFU ([2]; CS 0.06% in water, 48 hours): 0.715 CFU × 10^5/ml
- Staphylococcus aureus CFU ([2]; CS 0.06% in water, 72 hours): 1.04 CFU × 10^5/ml
- Staphylococcus aureus CFU ([2]; CS 0.06% in water, 96 hours): 2.06 CFU × 10^5/ml
- Staphylococcus aureus CFU ([2]; CS 0.06% in water, 7 days): 5.815 CFU × 10^5/ml
- Staphylococcus aureus CFU ([2]; CS 0.6% in water, 24 hours): 5.17 CFU × 10^5/ml
- Staphylococcus aureus CFU ([2]; CS 0.6% in water, 48 hours): 5.53 CFU × 10^5/ml
- Staphylococcus aureus CFU ([2]; CS 0.6% in water, 72 hours): 4.82 CFU × 10^5/ml
- Staphylococcus aureus CFU ([2]; CS 0.6% in water, 96 hours): 6.41 CFU × 10^5/ml
- Staphylococcus aureus CFU ([2]; CS 0.6% in water, 7 days): 3.25 CFU × 10^5/ml
- Staphylococcus aureus CFU ([2]; CS 1.2% in water, 24 hours): 2.71 CFU × 10^5/ml
- Staphylococcus aureus CFU ([2]; CS 1.2% in water, 48 hours): 4.725 CFU × 10^5/ml
- Staphylococcus aureus CFU ([2]; CS 1.2% in water, 72 hours): 2.39 CFU × 10^5/ml
- Staphylococcus aureus CFU ([2]; CS 1.2% in water, 96 hours): 3.96 CFU × 10^5/ml
- Staphylococcus aureus CFU ([2]; CS 1.2% in water, 7 days): 3.55 CFU × 10^5/ml
- Staphylococcus aureus CFU ([2]; CS 6% in water, 24 hours): 0 CFU × 10^5/ml
- Staphylococcus aureus CFU ([2]; CS 6% in water, 48 hours): 0.005 CFU × 10^5/ml
- Staphylococcus aureus CFU ([2]; CS 6% in water, 72 hours): 0 CFU × 10^5/ml
- Staphylococcus aureus CFU ([2]; CS 6% in water, 96 hours): 0 CFU × 10^5/ml
- Staphylococcus aureus CFU ([2]; CS 6% in water, 7 days): 0 CFU × 10^5/ml
- inactivation of Staphyloccus ([2]; lower CS concentrations): not inactivated but growth was prevented
- inactivation of Pseudomonas ([3]; 6% CS gel): completely inactivated
- Day 14 CFU/g ([3]; 6% CS gel, ATCC 9027, room temperature, Day 14): 0 CFU/g
- Day 28 CFU/g ([3]; 6% CS gel, ATCC 9027, room temperature, Day 28): 0 CFU/g
- Pseudomans aeruginosa CFU ([3]; CS 0.06% in water, 24 hours): 0 CFU × 10^5/ml
- Pseudomans aeruginosa CFU ([3]; CS 0.06% in water, 48 hours): 0.48 CFU × 10^5/ml
- Pseudomans aeruginosa CFU ([3]; CS 0.06% in water, 72 hours): 1.125 CFU × 10^5/ml
- Pseudomans aeruginosa CFU ([3]; CS 0.06% in water, 96 hours): 1.87 CFU × 10^5/ml
- Pseudomans aeruginosa CFU ([3]; CS 0.06% in water, 7 days): 2.04 CFU × 10^5/ml
- Pseudomans aeruginosa CFU ([3]; CS 0.6% in water, 24 hours): 5.43 CFU × 10^5/ml
- Pseudomans aeruginosa CFU ([3]; CS 0.6% in water, 48 hours): 6.80 CFU × 10^5/ml
- Pseudomans aeruginosa CFU ([3]; CS 0.6% in water, 72 hours): 4.43 CFU × 10^5/ml
- Pseudomans aeruginosa CFU ([3]; CS 0.6% in water, 96 hours): 6.92 CFU × 10^5/ml
- Pseudomans aeruginosa CFU ([3]; CS 0.6% in water, 7 days): 6.05 CFU × 10^5/ml
- Pseudomans aeruginosa CFU ([3]; CS 1.2% in water, 24 hours): 2.08 CFU × 10^5/ml
- Pseudomans aeruginosa CFU ([3]; CS 1.2% in water, 48 hours): 2.625 CFU × 10^5/ml
- Pseudomans aeruginosa CFU ([3]; CS 1.2% in water, 72 hours): 2.31 CFU × 10^5/ml
- Pseudomans aeruginosa CFU ([3]; CS 1.2% in water, 96 hours): 2.82 CFU × 10^5/ml
- Pseudomans aeruginosa CFU ([3]; CS 1.2% in water, 7 days): 4.79 CFU × 10^5/ml
- Pseudomans aeruginosa CFU ([3]; CS 6% in water, 24 hours): 0 CFU × 10^5/ml
- Pseudomans aeruginosa CFU ([3]; CS 6% in water, 48 hours): 0 CFU × 10^5/ml
- Pseudomans aeruginosa CFU ([3]; CS 6% in water, 72 hours): 0 CFU × 10^5/ml
- Pseudomans aeruginosa CFU ([3]; CS 6% in water, 96 hours): 0 CFU × 10^5/ml
- Pseudomans aeruginosa CFU ([3]; CS 6% in water, 7 days): 0 CFU × 10^5/ml
- inactivation of Pseudomonas ([3]; lower CS concentrations): not inactivated but growth was prevented
- Day 14 CFU/g ([4]; 6% CS gel, ATCC 10231, room temperature, Day 14): 0 CFU/g
- Day 28 CFU/g ([4]; 6% CS gel, ATCC 10231, room temperature, Day 28): 0 CFU/g
- Candida albicans CFU ([4]; CS 0.06% in water, 24 hours): 0 CFU × 10^5/ml
- Candida albicans CFU ([4]; CS 0.06% in water, 48 hours): 0 CFU × 10^5/ml
- Candida albicans CFU ([4]; CS 0.06% in water, 72 hours): 0 CFU × 10^5/ml
- Candida albicans CFU ([4]; CS 0.06% in water, 96 hours): 0 CFU × 10^5/ml
- Candida albicans CFU ([4]; CS 0.06% in water, 7 days): 0 CFU × 10^5/ml
- Candida albicans CFU ([4]; CS 0.6% in water, 24 hours): 0 CFU × 10^5/ml
- Candida albicans CFU ([4]; CS 0.6% in water, 48 hours): 0 CFU × 10^5/ml
- Candida albicans CFU ([4]; CS 0.6% in water, 72 hours): 0.62 CFU × 10^5/ml
- Candida albicans CFU ([4]; CS 0.6% in water, 96 hours): 0.655 CFU × 10^5/ml
- Candida albicans CFU ([4]; CS 0.6% in water, 7 days): 0.535 CFU × 10^5/ml
- Candida albicans CFU ([4]; CS 1.2% in water, 24 hours): 0 CFU × 10^5/ml
- Candida albicans CFU ([4]; CS 1.2% in water, 48 hours): 0 CFU × 10^5/ml
- Candida albicans CFU ([4]; CS 1.2% in water, 72 hours): 0 CFU × 10^5/ml
- Candida albicans CFU ([4]; CS 1.2% in water, 96 hours): 0 CFU × 10^5/ml
- Candida albicans CFU ([4]; CS 1.2% in water, 7 days): 0 CFU × 10^5/ml
- Candida albicans CFU ([4]; CS 6% in water, 24 hours): 0 CFU × 10^5/ml
- Candida albicans CFU ([4]; CS 6% in water, 48 hours): 0 CFU × 10^5/ml
- Candida albicans CFU ([4]; CS 6% in water, 72 hours): 0 CFU × 10^5/ml
- Candida albicans CFU ([4]; CS 6% in water, 96 hours): 0 CFU × 10^5/ml
- Candida albicans CFU ([4]; CS 6% in water, 7 days): 0 CFU × 10^5/ml
- inactivation of Candida ([4]; CS gel 1.2 and 6%): Complete inactivation
- inactivation of Candida ([4]; CS gel in as low a concentration as 0.6%): inactivated
- inactivation of Escherichia ([5]; 6% CS gel): completely inactivated
- Day 14 CFU/g ([5]; 6% CS gel, ATCC 8739, room temperature, Day 14): 0 CFU/g
- Day 28 CFU/g ([5]; 6% CS gel, ATCC 8739, room temperature, Day 28): 0 CFU/g
- Escherichia coli CFU ([5]; CS 0.06% in water, 24 hours): 0 CFU × 10^5/ml
- Escherichia coli CFU ([5]; CS 0.06% in water, 48 hours): 1.15 CFU × 10^5/ml
- Escherichia coli CFU ([5]; CS 0.06% in water, 72 hours): 1.21 CFU × 10^5/ml
- Escherichia coli CFU ([5]; CS 0.06% in water, 96 hours): 0.13 CFU × 10^5/ml
- Escherichia coli CFU ([5]; CS 0.06% in water, 7 days): 1.12 CFU × 10^5/ml
- Escherichia coli CFU ([5]; CS 0.6% in water, 24 hours): 5.6 CFU × 10^5/ml
- Escherichia coli CFU ([5]; CS 0.6% in water, 48 hours): 5.81 CFU × 10^5/ml
- Escherichia coli CFU ([5]; CS 0.6% in water, 72 hours): 4.43 CFU × 10^5/ml
- Escherichia coli CFU ([5]; CS 0.6% in water, 96 hours): 6.92 CFU × 10^5/ml
- Escherichia coli CFU ([5]; CS 0.6% in water, 7 days): 4.39 CFU × 10^5/ml
- Escherichia coli CFU ([5]; CS 1.2% in water, 24 hours): 0.98 CFU × 10^5/ml
- Escherichia coli CFU ([5]; CS 1.2% in water, 48 hours): 3.125 CFU × 10^5/ml
- Escherichia coli CFU ([5]; CS 1.2% in water, 72 hours): 1.625 CFU × 10^5/ml
- Escherichia coli CFU ([5]; CS 1.2% in water, 96 hours): 4.54 CFU × 10^5/ml
- Escherichia coli CFU ([5]; CS 1.2% in water, 7 days): 3.78 CFU × 10^5/ml
- Escherichia coli CFU ([5]; CS 6% in water, 24 hours): 0 CFU × 10^5/ml
- Escherichia coli CFU ([5]; CS 6% in water, 48 hours): 0.01 CFU × 10^5/ml
- Escherichia coli CFU ([5]; CS 6% in water, 72 hours): 0 CFU × 10^5/ml
- Escherichia coli CFU ([5]; CS 6% in water, 96 hours): 0 CFU × 10^5/ml
- Escherichia coli CFU ([5]; CS 6% in water, 7 days): 0 CFU × 10^5/ml
- inactivation of Escherichia ([5]; lower CS concentrations (except 0.06% CS gel), no growth occurs): either not inactivated or only to a minor extent
- growth inhibition ([6]; all strains): inhibited
- CS MIC ([6]; rma# 11142): 10000 µg/mL
- CS MIC ([6]; rma# 11168): 10000 µg/mL
- lowest concentration of compound that inhibited growth ([7]; Example 8, agar, 48 hours anaerobic, highest tested 625 μg/ml): 156 µg/mL
- CS MIC ([7]; rma# 11423): >625 µg/mL
- CS MIC ([7]; rma# 11653): 156 µg/mL
- growth inhibition ([8]; both strains, broth method): inhibited
- CS MIC ([8]; rma# 10481): 5000 µg/mL
- CS MIC ([8]; rma# 11518): 10000 µg/mL
